In the supplement of paper PMC10307832:

Legend:
Experiment in all cases: relative viability (nuclei count vs DMSO), 5 days (fraction); higher = more cells survive
Tanzisertib = compound: O[C@H]1CC[C@H](Nc2ncc3nc(Nc4c(F)cc(F)cc4F)n([C@H]4CCOC4)c3n2)CC1 [Tanzisertib]
Summary of the method: (§1)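 Hoechst staining, done together with fixation and permeabilisation, marked nuclei for 4× imaging and MetaXpress counting. This followed 5 days without medium change after lung cancer cell lines, kept overnight at 37 °C in 1536-well plates, were pinned with five library-drug doses (not always all listed) spaced by √10 on vehicle-anchored plates. Viability is the ratio of treated-well to vehicle-well nuclei, expressed as a median across plates. Plates passed only at control CV below 25% with at least one doubling.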

[1] = compound: C1CNCCC1C2=CC(=NN2)C3=CC=NC=C3
Summary of the method: as §1

[2] = compound: C[C@@H](N)c1ccc(C(=O)Nc2ccnc3[nH]ccc23)cc1
Summary of the method: as §1

[3] = compound: C1CNCCC1C2=CC(=NN2)C3=CC=NC=C3 + CC(=O)Nc1cccc(-n2c(=O)n(C3CC3)c(=O)c3c(Nc4ccc(I)cc4F)n(C)c(=O)c(C)c32)c1 [Trametinib] (partner 0.02 µM)
Summary of the method: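 Relative viability divides the nuclei count in treated wells by that in vehicle wells. Lung cancer cell lines were seeded in 1536-well plates, dosed by pin tool the next day, and fixed and stained after 5 days in one step with final 0.05% Triton X-100, 1% formaldehyde and 1 ug/ml Hoechst. Dosing was a single drug or a fixed anchor-drug dose plus five library-drug doses (not always all listed) in √10 steps, and values are medians of duplicate plates imaged at 4×.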

NCI-H2087
relative viability (Tanzisertib; 0.08 µM): 1.19 | relative viability (Tanzisertib; 0.253 µM): 0.969 | relative viability (Tanzisertib; 0.8 µM): 1.25 | relative viability (Tanzisertib; 2.53 µM): 1.09 | relative viability (Tanzisertib; 8 µM): 0.916 | relative viability ([1]; 0.08 µM): 1 | relative viability ([1]; 0.8 µM): 1.12 | relative viability ([1]; 2.53 µM): 0.996 | relative viability ([1]; 8 µM): 0.96 | relative viability ([2]; 0.04 µM): 0.988 | relative viability ([2]; 0.1265 µM): 1.01 | relative viability ([2]; 0.4 µM): 0.916 | relative viability ([2]; 1.265 µM): 0.92 | relative viability ([2]; 4 µM): 0.711 | relative viability ([3]; first compound 0.08 µM): 0.216 | relative viability ([3]; first compound 0.8 µM): 0.226 | relative viability ([3]; first compound 2.53 µM): 0.181 | relative viability ([3]; first compound 8 µM): 0.291

NCI-H460
relative viability (Tanzisertib; 0.08 µM): 0.994 | relative viability (Tanzisertib; 0.253 µM): 0.976 | relative viability (Tanzisertib; 0.8 µM): 0.992 | relative viability (Tanzisertib; 2.53 µM): 0.982 | relative viability (Tanzisertib; 8 µM): 0.98 | relative viability ([1]; 0.08 µM): 0.939 | relative viability ([1]; 0.8 µM): 1.05 | relative viability ([1]; 2.53 µM): 0.971 | relative viability ([1]; 8 µM): 1.01 | relative viability ([2]; 0.04 µM): 0.963 | relative viability ([2]; 0.1265 µM): 0.997 | relative viability ([2]; 0.4 µM): 1.06 | relative viability ([2]; 1.265 µM): 0.851 | relative viability ([2]; 4 µM): 0.993 | relative viability ([3]; first compound 0.08 µM): 0.0741 | relative viability ([3]; first compound 0.8 µM): 0.122 | relative viability ([3]; first compound 2.53 µM): 0.158 | relative viability ([3]; first compound 8 µM): 0.188

LOU-NH91
relative viability (Tanzisertib; 0.08 µM): 0.995 | relative viability (Tanzisertib; 0.253 µM): 0.988 | relative viability (Tanzisertib; 0.8 µM): 0.909 | relative viability (Tanzisertib; 2.53 µM): 0.995 | relative viability (Tanzisertib; 8 µM): 0.657 | relative viability ([1]; 0.08 µM): 1.1 | relative viability ([1]; 0.8 µM): 1.02 | relative viability ([1]; 2.53 µM): 1.05 | relative viability ([1]; 8 µM): 0.945 | relative viability ([2]; 0.04 µM): 0.811 | relative viability ([2]; 0.1265 µM): 0.972 | relative viability ([2]; 0.4 µM): 0.861 | relative viability ([2]; 1.265 µM): 0.607 | relative viability ([2]; 4 µM): 0.755 | relative viability ([3]; first compound 0.08 µM): 0.778 | relative viability ([3]; first compound 0.8 µM): 0.769 | relative viability ([3]; first compound 2.53 µM): 0.841 | relative viability ([3]; first compound 8 µM): 0.766

NCI-H1651
relative viability (Tanzisertib; 0.08 µM): 1.03 | relative viability (Tanzisertib; 0.253 µM): 1.01 | relative viability (Tanzisertib; 0.8 µM): 0.933 | relative viability (Tanzisertib; 2.53 µM): 0.886 | relative viability (Tanzisertib; 8 µM): 0.92 | relative viability ([1]; 0.08 µM): 0.956 | relative viability ([1]; 0.8 µM): 1.01 | relative viability ([1]; 2.53 µM): 0.989 | relative viability ([1]; 8 µM): 0.967 | relative viability ([2]; 0.04 µM): 1.02 | relative viability ([2]; 0.1265 µM): 1 | relative viability ([2]; 0.4 µM): 1.07 | relative viability ([2]; 1.265 µM): 1.13 | relative viability ([2]; 4 µM): 1.09 | relative viability ([3]; first compound 0.08 µM): 0.816 | relative viability ([3]; first compound 0.8 µM): 0.855 | relative viability ([3]; first compound 2.53 µM): 0.897 | relative viability ([3]; first compound 8 µM): 0.815

NCI-H441
relative viability (Tanzisertib; 0.08 µM): 1.09 | relative viability (Tanzisertib; 0.253 µM): 0.888 | relative viability (Tanzisertib; 0.8 µM): 0.93 | relative viability (Tanzisertib; 2.53 µM): 0.887 | relative viability (Tanzisertib; 8 µM): 0.891 | relative viability ([1]; 0.08 µM): 0.908 | relative viability ([1]; 0.8 µM): 1.12 | relative viability ([1]; 2.53 µM): 1.06 | relative viability ([1]; 8 µM): 0.912 | relative viability ([2]; 0.04 µM): 1.05 | relative viability ([2]; 0.1265 µM): 1.15 | relative viability ([2]; 0.4 µM): 1.31 | relative viability ([2]; 1.265 µM): 0.906 | relative viability ([2]; 4 µM): 0.827 | relative viability ([3]; first compound 0.08 µM): 0.425 | relative viability ([3]; first compound 0.8 µM): 0.469 | relative viability ([3]; first compound 2.53 µM): 0.555 | relative viability ([3]; first compound 8 µM): 0.461
